Where a name gives a salt, the structure may show the parent alone. Read-outs that look alike come from different tables or passages of the source. Blank lines part the entries; values can stand above or below the compound they belong to.
Target: T1, human Nav1.8/b3 (Homo sapiens, UniProt Q9Y5Y9)
T1 construct: expressed in transfected cells; host or cells: CHO
Experiment: Compound Profiling Human NaV1.8/β3 Cell Line—SyncroPatch384PE Assay (automated patch clamp, stably transfected CHO cells)
Format: cell-based
Details: Nav1.8/b3 CHO cells

[1] = P1 (IC50, resting state block), P1 measurement, resting state block, holding potential −120 mV, second set of compounds
[2] = P2 (IC50, inactivated state block), P2 measurement, inactivated state block, inactivation step −35 mV 10 sec, second set of compounds
[3] = P1 (IC50, resting state block), P1 measurement, resting state block, holding potential −120 mV, third set of compounds
[4] = P2 (IC50, inactivated state block), P2 measurement, inactivated state block, inactivation step −35 mV 10 sec, third set of compounds
[5] = P1 (IC50, resting state block), P1 measurement, resting state block, holding potential −120 mV, first set of compounds
[6] = P2 (IC50, inactivated state block), P2 measurement, inactivated state block, inactivation step −35 mV 10 sec, first set of compounds
[7] = P1 (IC50, resting state block), P1 measurement, resting state block, holding potential −120 mV, fourth set of compounds
[8] = P2 (IC50, inactivated state block), P2 measurement, inactivated state block, inactivation step −35 mV 10 sec, fourth set of compounds

T1 sequence (Q9Y5Y9 whole entry): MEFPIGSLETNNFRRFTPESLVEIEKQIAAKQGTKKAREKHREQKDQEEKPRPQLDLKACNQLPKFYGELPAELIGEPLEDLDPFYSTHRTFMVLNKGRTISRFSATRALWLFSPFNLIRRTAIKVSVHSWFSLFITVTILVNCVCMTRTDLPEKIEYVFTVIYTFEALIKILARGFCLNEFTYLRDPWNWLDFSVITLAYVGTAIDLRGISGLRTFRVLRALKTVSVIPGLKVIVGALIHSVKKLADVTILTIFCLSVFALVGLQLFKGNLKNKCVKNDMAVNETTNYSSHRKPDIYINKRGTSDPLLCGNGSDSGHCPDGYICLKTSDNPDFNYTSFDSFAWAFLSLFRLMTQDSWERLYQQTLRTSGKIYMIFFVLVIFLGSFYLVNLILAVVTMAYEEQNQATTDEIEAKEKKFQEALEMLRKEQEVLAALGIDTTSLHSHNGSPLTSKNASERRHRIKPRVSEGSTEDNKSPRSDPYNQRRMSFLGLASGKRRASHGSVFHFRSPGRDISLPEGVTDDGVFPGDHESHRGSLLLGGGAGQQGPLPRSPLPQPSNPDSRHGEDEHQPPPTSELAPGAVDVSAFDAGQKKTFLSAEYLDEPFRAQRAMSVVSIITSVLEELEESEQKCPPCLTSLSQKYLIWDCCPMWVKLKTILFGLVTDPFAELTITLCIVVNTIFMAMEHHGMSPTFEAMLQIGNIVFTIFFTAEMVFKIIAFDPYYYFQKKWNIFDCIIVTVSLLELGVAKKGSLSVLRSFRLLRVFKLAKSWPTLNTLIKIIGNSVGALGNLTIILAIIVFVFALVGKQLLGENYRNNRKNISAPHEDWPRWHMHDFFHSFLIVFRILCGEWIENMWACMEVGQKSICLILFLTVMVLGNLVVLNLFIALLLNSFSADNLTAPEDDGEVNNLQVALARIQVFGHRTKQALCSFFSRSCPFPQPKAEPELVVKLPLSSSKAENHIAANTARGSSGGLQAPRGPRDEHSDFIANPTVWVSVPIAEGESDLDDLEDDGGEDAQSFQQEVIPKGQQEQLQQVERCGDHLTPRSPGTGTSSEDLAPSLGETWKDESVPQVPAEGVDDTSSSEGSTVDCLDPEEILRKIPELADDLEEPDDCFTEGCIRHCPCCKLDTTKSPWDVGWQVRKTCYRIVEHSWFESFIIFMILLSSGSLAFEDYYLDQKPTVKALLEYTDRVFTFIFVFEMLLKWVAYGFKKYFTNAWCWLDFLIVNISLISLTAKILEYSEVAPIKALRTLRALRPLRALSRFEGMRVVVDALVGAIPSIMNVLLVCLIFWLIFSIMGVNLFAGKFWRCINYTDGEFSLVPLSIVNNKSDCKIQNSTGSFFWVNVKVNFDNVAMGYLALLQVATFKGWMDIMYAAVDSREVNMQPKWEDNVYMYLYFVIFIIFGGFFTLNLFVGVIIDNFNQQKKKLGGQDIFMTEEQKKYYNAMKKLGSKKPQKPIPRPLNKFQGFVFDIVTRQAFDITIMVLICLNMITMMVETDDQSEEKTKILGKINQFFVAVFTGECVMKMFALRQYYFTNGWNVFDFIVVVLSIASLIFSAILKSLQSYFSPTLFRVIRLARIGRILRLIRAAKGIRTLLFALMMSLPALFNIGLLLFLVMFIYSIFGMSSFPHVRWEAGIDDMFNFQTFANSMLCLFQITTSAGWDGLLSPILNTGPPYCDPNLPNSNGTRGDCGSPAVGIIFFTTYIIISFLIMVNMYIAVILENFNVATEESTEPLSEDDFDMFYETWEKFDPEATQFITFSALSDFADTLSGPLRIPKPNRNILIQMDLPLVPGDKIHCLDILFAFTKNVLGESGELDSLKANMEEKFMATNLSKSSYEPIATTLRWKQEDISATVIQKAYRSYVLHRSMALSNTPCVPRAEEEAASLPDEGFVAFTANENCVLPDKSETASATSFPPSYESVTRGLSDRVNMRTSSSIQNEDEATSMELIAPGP
T1 sequence (Q9NY72 23-215 partner): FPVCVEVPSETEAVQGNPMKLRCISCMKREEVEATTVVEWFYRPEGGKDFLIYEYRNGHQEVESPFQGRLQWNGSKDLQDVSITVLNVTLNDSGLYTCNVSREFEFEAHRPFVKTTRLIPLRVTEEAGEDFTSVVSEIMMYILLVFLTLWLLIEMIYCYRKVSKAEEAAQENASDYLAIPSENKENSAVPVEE

SMILES: Cc1nc(F)ccc1Oc1cc(C(F)(F)F)c(Cl)cc1C(=O)Nc1cccc([S@@](C)(=O)=NC(=O)[C@@H](C)N)c1 [Example 5B, N-(3-((R)—N-(D-alanyl)-S-methylsulfonimidoyl)phenyl)-5-chloro-2-((6-fluoro-2-methylpyridin-3-yl)oxy)-4-(trifluoromethyl)benzamide]
IC50 [1]: < 5 nM
IC50 [2]: < 5 nM

SMILES: CNCC(=O)N=[S@](C)(=O)c1cccc(NC(=O)c2c(Oc3ccc(F)nc3C)ccc(C(F)(F)F)c2F)c1 [Example 17B, (R)-2-fluoro-6-((6-fluoro-2-methylpyridin-3-yl)oxy)-N-(3-(S-methyl-N-(methylglycyl)sulfonimidoyl)phenyl)-3-(trifluoromethyl)benzamide]
IC50 [1]: < 5 nM
IC50 [2]: < 5 nM

SMILES: COc1cc(C#N)ccc1Oc1ncc(C(F)(F)F)c(C)c1C(=O)Nc1cccc(S(N)(=O)=O)c1 [Example 28C, 2-(4-cyano-2-methoxyphenoxy)-4-methyl-N-(3-sulfamoylphenyl)-5-(trifluoromethyl)nicotinamide]
IC50 [3]: < 5 nM
IC50 [4]: < 5 nM

SMILES: COc1c(Oc2cc(C(F)(F)F)nnc2C(=O)Nc2cccc(S(C)(=N)=O)c2)ccc(F)c1F (centres unmarked) [Example 31C, 4-(3,4-difluoro-2-methoxyphenoxy)-N-(3-(S-methylsulfonimidoyl)phenyl)-6-(trifluoromethyl)pyridazine-3-carboxamide]
IC50 [3]: 100 to 200 nM
IC50 [4]: 100 to 200 nM

SMILES: Cc1nc(F)ccc1Oc1ccc(C(F)(F)F)c(C)c1C(=O)Nc1cccc([S@@](C)(=O)=NC(=O)[C@@H](C)N)c1 [Example 24B]
IC50 [1]: < 5 nM
IC50 [2]: < 5 nM

SMILES: Cc1nc(F)ccc1Oc1ccc(C(F)(F)F)c(C)c1C(=O)Nc1cccc([S@@](C)(=O)=NC(=O)[C@@H]2CCCN2)c1 [Example 22B]
IC50 [1]: < 5 nM
IC50 [2]: < 5 nM

SMILES: Cc1nc(F)ccc1Oc1ccc(C(F)(F)F)c(F)c1C(=O)Nc1cccc([S@@](C)(=O)=NC(=O)[C@H](C)O)c1 [Example 18B, 2-fluoro-6-((6-fluoro-2-methylpyridin-3-yl)oxy)-N-(3-((R)—N—((S)-2-hydroxypropanoyl)-S-methylsulfonimidoyl)phenyl)-3-(trifluoromethyl)benzamide]
IC50 [1]: < 5 nM
IC50 [2]: < 5 nM

SMILES: Cc1nc(F)ccc1Oc1ncc(C(F)(F)F)c(C)c1C(=O)Nc1cccc([S@@](C)(=O)=NC(=O)CN)c1 [Example 2D, (R)-2-((6-fluoro-2-methylpyridin-3-yl)oxy)-N-(3-(N-glycyl-S-methylsulfonimidoyl)phenyl)-4-methyl-5-(trifluoromethyl)nicotinamide]
IC50 [7]: < 5 nM
IC50 [8]: < 5 nM

SMILES: Cc1nc(F)ccc1Oc1ccc(C(F)(F)F)c(F)c1C(=O)Nc1cccc([S@](C)(=N)=O)c1 [Example 4A, (R)-2-fluoro-6-((6-fluoro-2-methylpyridin-3-yl)oxy)-N-(3-(S-methylsulfonimidoyl)phenyl)-3-(trifluoromethyl)benzamide]
IC50 [5]: < 5 nM
IC50 [6]: < 5 nM

SMILES: Cc1nc(F)ccc1Oc1cc(C2CC2)c(C(F)(F)F)c(C)c1C(=O)Nc1cccc([S@](C)(=N)=O)c1 [Example 9A, (R)-4-cyclopropyl-6-((6-fluoro-2-methylpyridin-3-yl)oxy)-2-methyl-N-(3-(S-methylsulfonimidoyl)phenyl)-3-(trifluoromethyl)benzamide]
IC50 (P1 measurement, resting state block, holding potential −120 mV, first set of compounds, read-out: P1 (IC50, resting state block)): < 5 nM
IC50 (P2 measurement, inactivated state block, inactivation step −35 mV 10 sec, first set of compounds, read-out: P2 (IC50, inactivated state block)): < 5 nM

SMILES: Cc1nc(F)ccc1Oc1cc(C(F)(F)F)c(Cl)cc1C(=O)Nc1ccnc([S@@](C)(=N)=O)c1 (single isomer, unassigned) [Example 5A]
IC50 [5]: 5 to 50 nM
IC50 [6]: 5 to 50 nM

SMILES: CN=[S@](C)(=O)c1cccc(NC(=O)c2c(Oc3ccc(F)nc3C)ncc(C(F)(F)F)c2C)c1 [Example 33C, (R)—N-(3-(N,S-dimethylsulfonimidoyl)phenyl)-2-((6-fluoro-2-methylpyridin-3-yl)oxy)-4-methyl-5-(trifluoromethyl)nicotinamide]
IC50 [3]: 5 to 50 nM
IC50 [4]: < 5 nM

SMILES: Cc1nc(F)ccc1Oc1ccc(C(F)(F)F)c(F)c1C(=O)Nc1cccc([S@@](C)(=O)=NC(=O)[C@@H](C)O)c1 [Example 19B, 2-fluoro-6-((6-fluoro-2-methylpyridin-3-yl)oxy)-N-(3-((R)—N—((R)-2-hydroxypropanoyl)-S-methylsulfonimidoyl)phenyl)-3-(trifluoromethyl)benzamide]
IC50 [1]: < 5 nM
IC50 [2]: < 5 nM

SMILES: Cc1nc(F)ccc1Oc1ncc(C(F)(F)F)c(C)c1C(=O)Nc1cccc([S@@](C)(=O)=NC(=O)[C@@H](C)N)c1 [Example 9D, N-(3-((R)—N-(D-alanyl)-S-methylsulfonimidoyl)phenyl)-2-((6-fluoro-2-methylpyridin-3-yl)oxy)-4-methyl-5-(trifluoromethyl)nicotinamide formate]
IC50 [7]: < 5 nM
IC50 [8]: < 5 nM

SMILES: Cc1nc(F)ccc1Oc1c(C(F)(F)F)ncc(F)c1C(=O)Nc1cccc([S@](C)(=N)=O)c1 [Example 36C, (R)-5-fluoro-3-((6-fluoro-2-methylpyridin-3-yl)oxy)-N-(3-(S-methylsulfonimidoyl)phenyl)-2-(trifluoromethyl)isonicotinamide]
IC50 [3]: > 200 nM
IC50 [4]: > 200 nM

SMILES: Cc1nc(F)ccc1Oc1nnc(-c2ccc3c(c2)OCCO3)c(C)c1C(=O)Nc1cccc([S@](C)(=N)=O)c1 [Example 7C, (R)-6-(2,3-dihydrobenzo[b][1,4]dioxin-6-yl)-3-((6-fluoro-2-methylpyridin-3-yl)oxy)-5-methyl-N-(3-(S-methylsulfonimidoyl)phenyl)pyridazine-4-carboxamide]
IC50 [3]: < 5 nM
IC50 [4]: < 5 nM

SMILES: Cc1nc(F)ccc1Oc1ccc(C(F)(F)F)c(F)c1C(=O)Nc1cccc([S@@](C)(=O)=NC(=O)CN)c1 [Example 16B, (R)-2-fluoro-6-((6-fluoro-2-methylpyridin-3-yl)oxy)-N-(3-(N-glycyl-S-methylsulfonimidoyl)phenyl)-3-(trifluoromethyl)benzamide]
IC50 [1]: < 5 nM
IC50 [2]: < 5 nM

SMILES: Cc1nc(F)ccc1Oc1cc(C(F)(F)F)ccc1C(=O)Nc1cccc([S@@](C)(=O)=NC(=O)[C@@H]2CCCN2)c1 [Example 8B, (S)—N—((R)-(3-(2-((6-fluoro-2-methylpyridin-3-yl)oxy)-4-(trifluoromethyl)benzamido)phenyl)(methyl)(oxo)-λ^6-sulfaneylidene)pyrrolidine-2-carboxamide formate]
IC50 (P1 measurement, resting state block, holding potential −120 mV, second set of compounds, read-out: P1 (IC50, resting state block)): < 5 nM
IC50 (P2 measurement, inactivated state block, inactivation step −35 mV 10 sec, second set of compounds, read-out: P2 (IC50, inactivated state block)): < 5 nM

Continued, values first:

IC50 [5]: < 5 nM
IC50 [6]: < 5 nM
SMILES: Cc1nc(F)ccc1Oc1cc(C(F)(F)F)c(Cl)c(C)c1C(=O)Nc1ccnc([S@@](C)(=N)=O)c1 [Example 60A]

IC50 [3]: 50 to 100 nM
IC50 [4]: 50 to 100 nM
SMILES: Cc1ccc(Oc2ncc(C(F)(F)F)c(C)c2C(=O)Nc2cccc([S@@](C)(=N)=O)c2)c(F)n1 [Example 121C]

IC50 [5]: 5 to 50 nM
IC50 [6]: 5 to 50 nM
SMILES: Cc1nc(F)ccc1Oc1cc(C(F)(F)F)cc(F)c1C(=O)Nc1ccnc([S@](C)(=N)=O)c1 [Example 40A]

IC50 [5]: < 5 nM
IC50 [6]: < 5 nM
SMILES: Cc1nc(F)ccc1Oc1cc(C(F)(F)F)c(Cl)c(C)c1C(=O)Nc1ccnc(C(N)=O)c1 [Example 62A]

IC50 [5]: < 5 nM
IC50 [6]: 5 to 50 nM
SMILES: Cc1nc(F)ccc1Oc1cc(C2CC2)c(C(F)(F)F)cc1C(=O)Nc1ccnc([S@@](C)(=N)=O)c1 [Example 57A]

IC50 [5]: < 5 nM
IC50 [6]: < 5 nM
SMILES: C[S@@](=N)(=O)c1cc(NC(=O)c2c(F)cc(C(F)(F)F)cc2Oc2ccc(OC(F)(F)F)cc2)ccn1 [Example 44A]

IC50 (P1 measurement, resting state block, holding potential −120 mV, third set of compounds, read-out: P1 (IC50, resting state block)): > 200 nM
IC50 (P2 measurement, inactivated state block, inactivation step −35 mV 10 sec, third set of compounds, read-out: P2 (IC50, inactivated state block)): > 200 nM
SMILES: Cc1nc(F)ccc1Oc1ncc(C(F)F)c(C)c1C(=O)Nc1ccnc([S@](C)(=N)=O)c1 [Example 115C]

IC50 [5]: < 5 nM
IC50 [6]: < 5 nM
SMILES: Cc1nc(F)ccc1Oc1cc(C2CC2)c(C(F)(F)F)cc1C(=O)Nc1cccc([S@](C)(=N)=O)c1 [Example 67A]

IC50 [3]: < 5 nM
IC50 [4]: < 5 nM
SMILES: Cc1nc(F)ccc1Oc1ncc(C(F)(F)F)c(C)c1C(=O)Nc1cccc(S(C)(=N)=N)c1 [Example 40C, ((3-(2-((6-fluoro-2-methylpyridin-3-yl)oxy)-4-methyl-5-(trifluoromethyl)nicotinamido)phenyl)(methyl)-l6-sulfanediylidene)diamine]

IC50 [5]: < 5 nM
IC50 [6]: < 5 nM
SMILES: Cc1nc(F)ccc1Oc1cc(C2CC2)c(C(F)(F)F)c(C)c1C(=O)Nc1ccnc([S@](C)(=N)=O)c1 [Example 39A]

IC50 [5]: < 5 nM
IC50 [6]: < 5 nM
SMILES: C[S@@](=N)(=O)c1cc(NC(=O)c2c(Oc3ccc(OC(F)(F)F)cc3)cc(C(F)(F)F)c(Cl)c2F)ccn1 [Example 45A]

IC50 [5]: < 5 nM
IC50 [6]: < 5 nM
SMILES: Cc1nc(F)ccc1Oc1cc(C2CC2)c(C(F)(F)F)c(C)c1C(=O)Nc1ccnc([S@@](C)(=N)=O)c1 [Example 38A]

IC50 [3]: 100 to 200 nM
IC50 [4]: 100 to 200 nM
SMILES: Cc1nc(F)ccc1Oc1nc2ccccc2cc1C(=O)Nc1ccnc([S@](C)(=N)=O)c1 [Example 93C]
